Here are results for four compounds from ChEMBL document CHEMBL1152842, “Synthesis, Raman, FT-IR, NMR spectroscopic data and antimicrobial activity of mixed aza-oxo-thia macrocyclic compounds” (2009).

As a reminder, the MIC is the lowest concentration that inhibits growth of the organism.

Converted amounts (≈) assume the structure as drawn.

Holding throughout (assay type): functional
The test system of test [1] is Kluyveromyces marxianus. Put plainly: Antifungal activity against Kluyveromyces fragilis NRRL 2415 after 72 hrs by disk diffusion method. (In agar diffusion tests the substance spreads into inoculated agar from a disc or well.)
Test [2] has as its system Rhodotorula mucilaginosa. Put plainly: Antifungal activity against Rhodotorula rubra DSM 70403 after 72 hrs by disk diffusion method.
For test [3], the system named is Hanseniaspora guilliermondii. The experiment in a line: Antifungal activity against Hanseniaspora guilliermondii DSM 3432 after 72 hrs by disk diffusion method.
The subject of test [4] is Debaryomyces hansenii. Put plainly: Antifungal activity against Debaryomyces hansenii DSM 70238 after 72 hrs by disk diffusion method.
Test [5] concerns Candida albicans. Put plainly: Antifungal activity against Candida albicans ATCC 10231 after 72 hrs by disk diffusion method.
Test [6] relates to Escherichia coli. The experiment in a line: Antibacterial activity against Escherichia coli ATCC 11230 after 24 hrs by twofold serial dilution method. As to conditions: ATCC 11230, 24 h.
Test [7] relates to Staphylococcus aureus. Put plainly: Antibacterial activity against Staphylococcus aureus ATCC 6538 after 24 hrs by twofold serial dilution method. As to conditions: ATCC 6538, 24 h.
Test [8] concerns Klebsiella pneumoniae. Put plainly: Antibacterial activity against Klebsiella pneumoniae UC57 after 24 hrs by twofold serial dilution method.
For test [9], the system named is Pseudomonas aeruginosa. Put plainly: Antibacterial activity against Pseudomonas aeruginosa ATCC 27853 after 24 hrs by twofold serial dilution method. As to conditions: ATCC 27853, 24 h.
Test [10] deals with Proteus vulgaris. The experiment in a line: Antibacterial activity against Proteus vulgaris ATCC 8427 after 24 hrs by twofold serial dilution method. As to conditions: ATCC 8427, 24 h.
Test [11] has as its system Bacillus cereus. The experiment in a line: Antibacterial activity against Bacillus cereus ATCC 7064 after 24 hrs by twofold serial dilution method. The settings on record: ATCC 7064, 24 h.
For test [12], the system named is Mycolicibacterium smegmatis. The experiment in a line: Antibacterial activity against Mycobacterium smegmatis CCM 2067 after 24 hrs by twofold serial dilution method. The settings on record: CCM 2067, 24 h.
Test [13] deals with Listeria monocytogenes. The experiment in a line: Antibacterial activity against Listeria monocytogenes ATCC 15313 after 24 hrs by twofold serial dilution method. The settings on record: ATCC 15313, 24 h.
Test [14] deals with Micrococcus luteus. The experiment in a line: Antibacterial activity against Micrococcus luteus La 2971 after 24 hrs by twofold serial dilution method.
The subject of test [15] is Candida albicans. Put plainly: Antifungal activity against Candida albicans ATCC 10231 after 48 hrs by twofold serial dilution method. The settings on record: ATCC 10231, 48 h.
For test [16], the system named is Kluyveromyces marxianus. The experiment in a line: Antifungal activity against Kluyveromyces fragilis NRRL 2415 after 48 hrs by twofold serial dilution method. As to conditions: NRRL 2415, 48 h.
For test [17], the system named is Rhodotorula mucilaginosa. The experiment in a line: Antifungal activity against Rhodotorula rubra DSM 70403 after 48 hrs by twofold serial dilution method. As to conditions: DSM 70403, 48 h.
The subject of test [18] is Hanseniaspora guilliermondii. Put plainly: Antifungal activity against Hanseniaspora guilliermondii DSM 3432 after 48 hrs by twofold serial dilution method. The settings on record: DSM 3432, 48 h.
Test [19] has as its system Debaryomyces hansenii. The experiment in a line: Antifungal activity against Debaryomyces hansenii DSM 70238 after 48 hrs by twofold serial dilution method. As to conditions: DSM 70238, 48 h.
Test [20] has as its system Escherichia coli. Put plainly: Antibacterial activity against Escherichia coli ATCC 11230 after 24 hrs by disk diffusion method.
Test [21] has as its system Staphylococcus aureus. The experiment in a line: Antibacterial activity against Staphylococcus aureus ATCC 6538 after 24 hrs by disk diffusion method.
Test [22] concerns Klebsiella pneumoniae. Put plainly: Antibacterial activity against Klebsiella pneumoniae UC57 after 24 hrs by disk diffusion method.
The subject of test [23] is Pseudomonas aeruginosa. The experiment in a line: Antibacterial activity against Pseudomonas aeruginosa ATCC 27853 after 24 hrs by disk diffusion method.
Test [24] relates to Proteus vulgaris. Put plainly: Antibacterial activity against Proteus vulgaris ATCC 8427 after 24 hrs by disk diffusion method.
The test system of test [25] is Bacillus cereus. The experiment in a line: Antibacterial activity against Bacillus cereus ATCC 7064 after 24 hrs by disk diffusion method.
The test system of test [26] is Mycolicibacterium smegmatis. Put plainly: Antibacterial activity against Mycobacterium smegmatis CCM 2067 after 24 hrs by disk diffusion method.
Test [27] relates to Listeria monocytogenes. Put plainly: Antibacterial activity against Listeria monocytogenes ATCC 15313 after 24 hrs by disk diffusion method.
Test [28] concerns Micrococcus luteus. The experiment in a line: Antibacterial activity against Micrococcus luteus La 2971 after 24 hrs by disk diffusion method.
The subject of test [29] is Escherichia coli. Put plainly: Antibacterial activity against Escherichia coli ATCC 11230 at 1 ug after 24 hrs by disk diffusion method. The settings on record: ATCC 11230, 24 h, read-out: IZ.
The test system of test [30] is Staphylococcus aureus. Put plainly: Antibacterial activity against Staphylococcus aureus ATCC 6538 at 1 ug after 24 hrs by disk diffusion method. As to conditions: ATCC 6538, 24 h, read-out: IZ.
The subject of test [31] is Klebsiella pneumoniae. Put plainly: Antibacterial activity against Klebsiella pneumoniae UC57 at 1 ug after 24 hrs by disk diffusion method. As to conditions: read-out: IZ.
In test [32] the test system is Pseudomonas aeruginosa. The experiment in a line: Antibacterial activity against Pseudomonas aeruginosa ATCC 27853 at 1 ug after 24 hrs by disk diffusion method. The settings on record: ATCC 27853, 24 h, read-out: IZ.
The subject of test [33] is Proteus vulgaris. Put plainly: Antibacterial activity against Proteus vulgaris ATCC 8427 at 1 ug after 24 hrs by disk diffusion method. The settings on record: ATCC 8427, 24 h, read-out: IZ.
Test [34] concerns Bacillus cereus. Put plainly: Antibacterial activity against Bacillus cereus ATCC 7064 at 1 ug after 24 hrs by disk diffusion method. As to conditions: ATCC 7064, 24 h, read-out: IZ.
Test [35] has as its system Mycolicibacterium smegmatis. Put plainly: Antibacterial activity against Mycobacterium smegmatis CCM 2067 at 1 ug after 24 hrs by disk diffusion method. As to conditions: CCM 2067, 24 h, read-out: IZ.
Test [36] relates to Listeria monocytogenes. Put plainly: Antibacterial activity against Listeria monocytogenes ATCC 15313 at 1 ug after 24 hrs by disk diffusion method. The settings on record: ATCC 15313, 24 h, read-out: IZ.
The test system of test [37] is Micrococcus luteus. The experiment in a line: Antibacterial activity against Micrococcus luteus La 2971 at 1 ug after 24 hrs by disk diffusion method. The settings on record: read-out: IZ.

Take `O=C1CSCC(=O)Nc2cccc(n2)NC(=O)CSCC(=O)Nc2cccc(n2)N1`: the “inhibition zone (IZ)” value in the test on Kluyveromyces marxianus [1] was determined as 20 mm; in the test with Rhodotorula mucilaginosa [2], 15 mm; in test [3] it was 20 mm; with Debaryomyces hansenii [4] it was 18 mm; in the test with Candida albicans [5], 17 mm; with Escherichia coli [20], 10 mm. Besides, the “inhibition zone (IZ)” value is 14 mm in the test on Staphylococcus aureus [21]; 15 mm with Klebsiella pneumoniae [22]; 16 mm in the test with Pseudomonas aeruginosa [23]; 11 mm in the test on Proteus vulgaris [24]; 12 mm in the test with Bacillus cereus [25]; 10 mm in [26]. Besides, the “inhibition zone (IZ)” value in the test with Listeria monocytogenes [27] and in the test on Micrococcus luteus [28] was 12 mm in each case. Further, the MIC turned out to be 25 µg/mL (≈ 56 µM) against Escherichia coli [6]; 12.5 µg/mL (≈ 28 µM) in the test on Staphylococcus aureus [7]; 6.25 µg/mL (≈ 14 µM) in the test on Klebsiella pneumoniae [8]; 6.25 µg/mL (≈ 14 µM) in the test with Pseudomonas aeruginosa [9]; 25 µg/mL (≈ 56 µM) in the test on Proteus vulgaris [10]; 12.5 µg/mL (≈ 28 µM) in the test with Bacillus cereus [11]. The MIC is 25 µg/mL (≈ 56 µM) in test [12]; 12.5 µg/mL (≈ 28 µM) against Listeria monocytogenes [13]; 12.5 µg/mL (≈ 28 µM) in the test on Micrococcus luteus [14]; 6.25 µg/mL (≈ 14 µM) with Candida albicans [15]; 3.12 µg/mL (≈ 7 µM) with Kluyveromyces marxianus [16]; 6.25 µg/mL (≈ 14 µM) against Rhodotorula mucilaginosa [17]. Further, the MIC (in [18]; against Debaryomyces hansenii [19]) was 3.12 µg/mL (≈ 7 µM) throughout.
For `O=C1CCSSCCC(=O)Nc2cccc(n2)NC(=O)CCSSCCC(=O)Nc2cccc(n2)N1`, the “inhibition zone (IZ)” value in the test on Kluyveromyces marxianus [1] is 22 mm; in the test on Rhodotorula mucilaginosa [2], 22 mm; in [3], 22 mm; with Debaryomyces hansenii [4], 22 mm; with Candida albicans [5] it was 22 mm; in the test with Escherichia coli [20], 16 mm. The “inhibition zone (IZ)” value with Staphylococcus aureus [21] is 15 mm; in the test on Klebsiella pneumoniae [22] it was 17 mm; in the test on Pseudomonas aeruginosa [23], 17 mm; in the test on Proteus vulgaris [24], 11 mm; in the test on Bacillus cereus [25], 15 mm; in test [26] it was 10 mm. The “inhibition zone (IZ)” value in the test with Listeria monocytogenes [27] and in the test with Micrococcus luteus [28] was 15 mm throughout. Besides, the MIC turned out to be 6.25 µg/mL (≈ 11 µM) with Escherichia coli [6]; 6.25 µg/mL (≈ 11 µM) against Staphylococcus aureus [7]; 6.25 µg/mL (≈ 11 µM) against Klebsiella pneumoniae [8]; 6.25 µg/mL (≈ 11 µM) in the test with Pseudomonas aeruginosa [9]; 25 µg/mL (≈ 44.1 µM) in the test on Proteus vulgaris [10]; 12.5 µg/mL (≈ 22.1 µM) in the test with Bacillus cereus [11]. Also, the MIC amounted to 25 µg/mL (≈ 44.1 µM) in test [12]; 12.5 µg/mL (≈ 22.1 µM) in the test on Listeria monocytogenes [13]; 12.5 µg/mL (≈ 22.1 µM) in the test on Micrococcus luteus [14]; 1.56 µg/mL (≈ 2.75 µM) in the test on Candida albicans [15]; 1.56 µg/mL (≈ 2.75 µM) in the test on Kluyveromyces marxianus [16]; 1.56 µg/mL (≈ 2.75 µM) against Rhodotorula mucilaginosa [17]. For the same compound, the MIC (in test [18]; against Debaryomyces hansenii [19]) was 1.56 µg/mL (≈ 2.75 µM) each time.
For `CC1(C)S[C@@H]2[C@H](NC(=O)[C@H](N)c3ccccc3)C(=O)N2[C@H]1C(=O)O` [AMPICILLIN], the zone of inhibition at 1 µg/disc was 12 mm with Escherichia coli [29]; 16 mm in the test on Staphylococcus aureus [30]; 14 mm with Klebsiella pneumoniae [31]; 12 mm with Pseudomonas aeruginosa [32]; 32 mm in the test with Proteus vulgaris [33]; 16 mm in the test with Bacillus cereus [34]. For the same compound, the zone of inhibition at 1 µg/disc is 21 mm in test [35], 12 mm with Listeria monocytogenes [36] and 10 mm in the test on Micrococcus luteus [37].
For `CO/N=C(\C(=O)N[C@@H]1C(=O)N2C(C(=O)O)=C(COC(C)=O)CS[C@H]12)c1csc(N)n1` [CEFOTAXIME], the zone of inhibition at 1 µg/disc in the test with Escherichia coli [29] was 10 mm; in the test on Staphylococcus aureus [30], 12 mm; in the test on Klebsiella pneumoniae [31], 13 mm; in the test on Pseudomonas aeruginosa [32], 14 mm; with Proteus vulgaris [33] it was 32 mm; in the test on Bacillus cereus [34], 18 mm. Further, the zone of inhibition at 1 µg/disc is 11 mm in test [35], 16 mm with Listeria monocytogenes [36] and 54 mm with Micrococcus luteus [37].
